Key:
Type in all cases: cell-based
[1] = target: T1, human TLR8 (Homo sapiens, UniProt Q9NR97); test: TLR8 inhibition reporter assay (HEK-Blue cells, SEAP reporter, R848 stimulation); conditions: HEK-Blue cells overexpressing human TLR8, SEAP reporter, R848 15.9 μM
T1 construct: host or cells: HEK-Blue cells
T1 sequence (Q9NR97 27-1041): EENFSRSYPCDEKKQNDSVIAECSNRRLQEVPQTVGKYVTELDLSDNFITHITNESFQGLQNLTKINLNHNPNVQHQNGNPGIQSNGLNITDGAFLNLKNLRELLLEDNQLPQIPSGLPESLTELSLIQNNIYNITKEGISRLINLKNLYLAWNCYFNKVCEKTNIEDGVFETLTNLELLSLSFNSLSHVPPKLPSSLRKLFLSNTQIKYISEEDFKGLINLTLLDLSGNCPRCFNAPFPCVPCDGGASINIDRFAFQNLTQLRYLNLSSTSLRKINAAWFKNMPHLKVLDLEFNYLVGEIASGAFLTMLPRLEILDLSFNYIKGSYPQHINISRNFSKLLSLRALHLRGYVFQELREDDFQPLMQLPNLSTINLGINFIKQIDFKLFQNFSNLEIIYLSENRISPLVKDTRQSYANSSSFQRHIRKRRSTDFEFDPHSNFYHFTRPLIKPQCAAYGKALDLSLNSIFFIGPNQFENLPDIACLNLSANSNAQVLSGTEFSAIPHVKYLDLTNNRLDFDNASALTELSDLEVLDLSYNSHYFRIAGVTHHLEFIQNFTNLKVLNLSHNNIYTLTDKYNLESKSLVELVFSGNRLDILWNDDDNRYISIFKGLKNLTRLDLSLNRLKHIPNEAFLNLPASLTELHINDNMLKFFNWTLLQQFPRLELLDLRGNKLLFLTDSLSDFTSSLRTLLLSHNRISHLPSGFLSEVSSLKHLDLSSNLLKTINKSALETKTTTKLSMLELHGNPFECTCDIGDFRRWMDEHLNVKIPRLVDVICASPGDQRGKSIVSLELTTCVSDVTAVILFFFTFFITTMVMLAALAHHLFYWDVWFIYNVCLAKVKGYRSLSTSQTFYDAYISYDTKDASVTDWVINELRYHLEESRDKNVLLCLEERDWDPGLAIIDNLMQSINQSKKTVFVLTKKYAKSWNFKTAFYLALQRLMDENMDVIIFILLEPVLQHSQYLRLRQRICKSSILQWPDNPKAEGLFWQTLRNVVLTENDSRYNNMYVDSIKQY
Summary of the method: (§1)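 Ligand levels: TLR7 gardiquimod 7.5 μM, TLR8 R848 15.9 μM, TLR9 ODN2006 5 nM, added after 30 min room-temperature compound pre-incubation at 0.05 nM-50 μM. Reporter SEAP read with HEK-Blue Detection reagent after 22 h, 37° C. Inhibition expressed as % reduction relative to agonist-plus-DMSO and known-inhibitor controls.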

[2] = target: T2, human TLR7 (Homo sapiens, UniProt Q9NYK1); test: TLR7 inhibition reporter assay (HEK-Blue cells, SEAP reporter, gardiquimod stimulation); conditions: HEK-Blue cells overexpressing human TLR7, SEAP reporter, gardiquimod 7.5 μM
T2 construct: host or cells: HEK-Blue cells
T2 sequence (Q9NYK1 27-1049): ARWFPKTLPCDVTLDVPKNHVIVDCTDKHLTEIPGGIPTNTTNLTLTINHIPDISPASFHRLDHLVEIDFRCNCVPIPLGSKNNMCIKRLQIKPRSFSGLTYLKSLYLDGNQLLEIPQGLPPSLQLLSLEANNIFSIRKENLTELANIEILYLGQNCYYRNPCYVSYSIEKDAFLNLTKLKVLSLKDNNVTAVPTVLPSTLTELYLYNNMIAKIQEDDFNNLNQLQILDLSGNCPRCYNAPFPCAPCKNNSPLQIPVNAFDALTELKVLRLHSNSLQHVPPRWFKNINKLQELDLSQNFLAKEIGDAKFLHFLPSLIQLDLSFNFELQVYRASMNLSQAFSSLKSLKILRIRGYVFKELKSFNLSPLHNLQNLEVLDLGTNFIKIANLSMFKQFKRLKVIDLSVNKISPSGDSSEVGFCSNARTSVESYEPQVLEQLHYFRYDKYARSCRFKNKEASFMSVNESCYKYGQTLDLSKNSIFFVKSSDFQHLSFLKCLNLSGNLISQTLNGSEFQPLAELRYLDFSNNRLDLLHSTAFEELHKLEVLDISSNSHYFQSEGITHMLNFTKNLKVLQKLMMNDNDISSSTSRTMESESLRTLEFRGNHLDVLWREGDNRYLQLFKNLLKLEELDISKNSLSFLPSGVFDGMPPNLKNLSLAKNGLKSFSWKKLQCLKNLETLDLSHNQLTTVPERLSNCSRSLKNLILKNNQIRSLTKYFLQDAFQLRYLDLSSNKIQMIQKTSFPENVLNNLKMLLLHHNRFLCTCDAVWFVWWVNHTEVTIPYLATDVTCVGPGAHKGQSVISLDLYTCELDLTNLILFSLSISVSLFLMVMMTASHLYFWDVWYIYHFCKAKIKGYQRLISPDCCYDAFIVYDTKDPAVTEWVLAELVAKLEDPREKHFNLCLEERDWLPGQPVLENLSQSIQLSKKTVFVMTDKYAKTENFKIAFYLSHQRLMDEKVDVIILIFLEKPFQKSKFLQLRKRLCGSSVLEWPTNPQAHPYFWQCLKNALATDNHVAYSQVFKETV
Summary of the method: as §1

[3] = target: T3, human TLR9 (Homo sapiens, UniProt Q9NR96); test: TLR9 inhibition reporter assay (HEK-Blue cells, SEAP reporter, ODN2006 stimulation); conditions: HEK-Blue cells overexpressing human TLR9, SEAP reporter, ODN2006 5 nM
T3 construct: host or cells: HEK-Blue cells
T3 sequence (Q9NR96 26-1032): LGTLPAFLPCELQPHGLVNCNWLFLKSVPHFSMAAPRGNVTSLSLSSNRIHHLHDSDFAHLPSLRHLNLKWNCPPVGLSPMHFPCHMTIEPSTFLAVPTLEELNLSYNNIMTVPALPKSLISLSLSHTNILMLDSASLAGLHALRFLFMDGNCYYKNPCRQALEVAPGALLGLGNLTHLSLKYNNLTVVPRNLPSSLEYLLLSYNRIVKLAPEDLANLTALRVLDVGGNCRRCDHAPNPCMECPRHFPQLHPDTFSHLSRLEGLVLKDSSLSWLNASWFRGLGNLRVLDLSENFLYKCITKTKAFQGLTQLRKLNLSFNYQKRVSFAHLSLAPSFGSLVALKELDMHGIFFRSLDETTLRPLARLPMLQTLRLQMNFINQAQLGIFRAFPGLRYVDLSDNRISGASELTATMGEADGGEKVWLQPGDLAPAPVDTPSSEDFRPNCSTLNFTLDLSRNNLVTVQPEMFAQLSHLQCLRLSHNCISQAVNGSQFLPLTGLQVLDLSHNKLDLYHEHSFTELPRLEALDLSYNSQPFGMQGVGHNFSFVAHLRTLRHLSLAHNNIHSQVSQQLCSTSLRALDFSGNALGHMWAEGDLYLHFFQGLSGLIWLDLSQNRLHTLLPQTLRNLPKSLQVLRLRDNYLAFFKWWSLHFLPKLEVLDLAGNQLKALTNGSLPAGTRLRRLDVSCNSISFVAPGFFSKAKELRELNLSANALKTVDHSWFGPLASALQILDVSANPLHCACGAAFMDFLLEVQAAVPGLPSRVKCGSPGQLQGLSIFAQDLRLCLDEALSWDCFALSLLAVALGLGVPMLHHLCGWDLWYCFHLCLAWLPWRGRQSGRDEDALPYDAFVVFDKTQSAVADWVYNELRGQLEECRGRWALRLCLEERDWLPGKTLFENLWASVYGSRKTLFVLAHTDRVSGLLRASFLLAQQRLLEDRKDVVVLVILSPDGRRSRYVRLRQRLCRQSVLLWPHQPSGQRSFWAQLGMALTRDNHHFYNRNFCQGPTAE
Summary of the method: as §1

| Compound | IC50 [1] | IC50 [2] | IC50 [3] |
| --- | --- | --- | --- |
| Cc1cc(-c2[nH]c3ccc(C4CN(C5COC5)CCO4)cc3c2C(C)C)cc(C)n1 (stereo not drawn) [Example 304] | 108 nM | 89 nM | > 50000 nM |
| Cc1c(-c2[nH]c3ccc(C4CCC(NCC(=O)N(C)C)CC4)cc3c2C(C)C)cn2cnnc2c1C (stereo not drawn) [Example 518] | 16 nM | 2 nM | 1310 nM |
| CNC(=O)CN1CCOC(c2ccc3[nH]c(-c4cn5ncnc5c(C)c4C)c(C(C)C)c3c2)C1 (stereo not drawn) [Example 313] | 60 nM | 25 nM | > 50000 nM |
| Cc1c(-c2[nH]c3ccc(C4CC5CN(CC(=O)N(C)C)CC5C4)cc3c2C(C)C)cn2cnnc2c1C (stereo not drawn) [Example 520] | 66 nM | 29 nM | 17700 nM |
| COc1cc(-c2[nH]c3ccc(CCN4CCCC4)cc3c2C(C)C)cn2ncnc12 [Example 414] | 4 nM | 3 nM | 4510 nM |
| COc1cc(-c2[nH]c3ccc(C4CCC(NC(=O)CN5CCOCC5)CC4)cc3c2C(C)C)cn2ncnc12 (stereo not drawn) [Example 141] | 18 nM | 2 nM | 4320 nM |
| COc1cc(-c2[nH]c3ccc(C4CCC(N5CC6(COC6)C5)CC4)cc3c2C(C)C)cn2ncnc12 (stereo not drawn) [Example 96] | 3.3 nM | 2 nM | 1740 nM |
| COCCN1CCN(C2CCC(c3ccc4[nH]c(-c5cc(OC)c6ncnn6c5)c(C(C)C)c4c3)CC2)CC1 (single isomer, unassigned) [Example 38] | 2.1 nM | 1 nM | 2090 nM |
| COc1cc(-c2[nH]c3ccc(C4CN(C(=O)CN(C)C)CCO4)cc3c2C(C)C)cn2ncnc12 (stereo not drawn) [Example 334] | 3.1 nM | 0.83 nM | 2750 nM |
| Cc1cc(-c2[nH]c3ccc(CC4CCCN4C4CCOCC4)cc3c2C(C)C)cn2ncnc12 (stereo not drawn) [Example 425] | 1.4 nM | 0.72 nM | 2490 nM |
| Cc1c(-c2[nH]c3ccc(C4CN(C5CCOCC5)C4)cc3c2C(C)C)cn(C)c(=O)c1C [Example 481] | 27 nM | 109 nM | 32800 nM |
| Cc1c(-c2[nH]c3ccc(C4CC(N(C)C(=O)CN(C)C)C4)cc3c2C(C)C)cn2ncnc2c1C (stereo not drawn) [Example 584] | 3.8 nM | 2 nM | 5650 nM |
| CCc1c(-c2ccnc(C)c2)[nH]c2ccc(CNC(=O)OCC3CCNCC3)cc12 [Example 449] | 228 nM | 1600 nM | 480 nM |
| Cc1cc(-c2[nH]c3ccc(C4CCC(CN(C)C)CC4)cc3c2C(C)C)cc(C)n1 (stereo not drawn) [Example 176, 1-(4-(2-(2,6-dimethylpyridin-4-yl)-3-isopropyl-1H-indol-5-yl)cyclohexyl)-N,N-dimethylmethanamine] | 55 nM | 26 nM | 8890 nM |
| Cc1cc(-c2[nH]c3ccc(C4CCCNC4)cc3c2C(C)C)cc(C)n1 (stereo not drawn) [Example 187] | 3.9 nM | 2 nM | 274 nM |
| Cc1c(-c2[nH]c3ccc(C4CCC(N5CCOCC5)CC4)cc3c2C(C)C)cn2ncnc2c1C (single isomer, unassigned) [Example 92] | 0.33 nM | 0.39 nM | 2680 nM |
| COc1cc(-c2[nH]c3ccc(C4CCC(N(C)OC)CC4)cc3c2C(C)C)cn2ncnc12 (stereo not drawn) [Example 100] | 431 nM | 32 nM | 14600 nM |
| Cc1cc(-c2[nH]c3ccc(C4CN(C5COC5)CCO4)cc3c2C(C)C)cn2ncnc12 (stereo not drawn) [Example 290] | 177 nM | 36 nM | > 50000 nM |
| CNC1CCC(c2ccc3[nH]c(-c4cn5ncnc5c(C)c4C)c(C(C)C)c3c2)CC1 (stereo not drawn) [Example 91] | 2.7 nM | 0.86 nM | 2700 nM |
| Cc1c(-c2[nH]c3ccc(C4CCC(NC(=O)CN(C)C)CC4)cc3c2C(C)C)cn2ncnc2c1C (stereo not drawn) [Example 124] | 12 nM | 9 nM | 8180 nM |
| COc1cc(-c2[nH]c3ccc(C4CCC(N5CC[C@@H](N(C)C)C5)CC4)cc3c2C(C)C)cn2ncnc12 (stereo partly drawn) [Example 28] | 0.26 nM | 0.17 nM | 328 nM |
| Cc1cc(-c2[nH]c3ccc(C4CN(CCS(C)(=O)=O)CCO4)cc3c2C(C)C)cn2ncnc12 (stereo not drawn) [Example 344] | 14 nM | 7 nM | > 50000 nM |
| CNC(=O)CNC1CCC(c2ccc3[nH]c(-c4cc(C)c5ncnn5c4)c(C(C)C)c3c2)CC1 (single isomer, unassigned) [Example 162, 2-((4-(3-isopropyl-2-(8-methyl-[1,2,4]triazolo[1,5-a]pyridin-6-yl)-1H-indol-5-yl)cyclohexyl)amino)-N-methylacetamide] | 1.2 nM | 0.56 nM | 2110 nM |
| CCN(C)C1CCC(c2ccc3[nH]c(-c4cn5ncnc5c(C)c4C)c(C(C)C)c3c2)CC1 (stereo not drawn) [Example 87] | 0.63 nM | 0.32 nM | 1910 nM |
